# Measured values taken from US20100093611A1, “COMPOUNDS AND METHODS FOR TREATING OR PREVENTING AUTOIMMUNE DISEASES” (priority 2007, published 2010).
# Columns and labels:
# [1] = system: freshly isolated monocytes; test: Cytotoxicity at the concentration used in the SLE serum monocyte assay; format: cell-based, human; conditions: 1 μm
# [2] = system: SLE-associated gene signature as induced by SLE serum; test: SLE serum-induced IFN-α gene signature in freshly isolated monocytes (HITS qPCR); format: cell-based, human; conditions: for Percentage inhibition of the six most robustly induced IFN-α signature genes induced by SLE serum: 1 μm, monocytes stimulated with 50% SLE patient serum, mean of six genes vs vehicle control; for Upregulation of the six most robustly induced IFN-α signature gene set by 50% lupus serum (in words): freshly isolated monocytes, dose dependent (FIG. 4)
# Description: RNA from lysed cells was examined by qPCR analysis in HITS assay. […] Each bar represents the average+/−SEM of three independent experiments using serum from different SLE patients.
# Stimulation of healthy donor PBMCs with serum isolated from SLE patients induces the up-regulation of IFN-α pathway-associated genes (Interfon-induced genes, IFIGs), such as MX1^31. Furthermore, expression of IFIG correlates with disease severity and organ involvement^31, 32. To further evaluate the role of small molecular inhibitors on the type I IFN gene signature, freshly isolated monocytes stimulated with 50% lupus serum were used in HITS assays. […] Importantly, these experiments were performed with SLE serum from patients with well characterized biochemical profiles.
# SLE patient and control serum were purchased from Bioreclamation (Hicksville, N.Y.). IFN-α 2a was obtained from PBL Biomedical laboratories (Piscataway, N.J.). Fresh PBMCs from healthy donor were prepared by Ficoll-hypaque fraction according to the manufactory's instruction. Cells were cultured at 2×10^5 cells/0.1 ml in 96-well flat-bottomed plates in culture medium.
# To determine the effect of compounds on gene expression, compounds and vehicle controls were pre-incubated with cells for 30 min at 37° C. before stimulation with 50% lupus serum or 100 IU/ml IFN-α 2a were incubated with PBMC. After 6 h stimulation, cells were lysed in Qiagen 2XTCL lysis buffer followed by HITS analysis (see FIG. 2).
# MCP-1 = test: IFN-α induced MCP-1 secretion from human monocytes; format: cell-based; conditions: 500 IU/ml IFN-α, 48 h (FIG. 6B)
# Experimental: (§1) Freshly isolated monocytes were treated with 500 IU/ml IFN-α with or without indicated compounds for 48 h. Supernatants were collected and MCP-1 and IP-10 levels were analyzed by Searchlight Inc. Percentage inhibition represents inhibition of the upregulation of chemokine induced by IFN-α compared to the vehicle control. Panel A: Effect of compounds on IP-10 secretion. Panel B: Effect of compounds on MCP-1 secretion. Each bar represents the average+/−SEM of three independent experiments. Panel C: IKK2 inhibitor IV blocked IFN-α induced IP-10 protein level in vivo. Female NZBW/F1 mice were treated with either antibody (i.p. injection 30 mg/kg) or IKK2 inhibitor (45 mg/kg BID) as described in materials and methods. Adenovirus-IFN-a (1×10^10 viral particles) was administrated i.v. at time 0. Samples were collected 6 h post-stimulation, IP-10 protein level was measured by ELISA. Data representative of two experiments.
# (§2) Multiple chemokines, including monocyte chemo-attractant protein-1 (MCP-1) and activated T cell chemokine interferon inducible protein 10 (IP-10) regulate leukocytes migration and infiltration into inflammated organs^34. Expression of MCP-1 and IP-10 are elevated in serum of SLE patients^34, 35 and in monocytes of healthy donors stimulated in vitro by IFN-α^36. Consequently, the effect of Apicidin 1a, IKK2 inhibitor IV, and JAK inhibitors in IP-10 and MCP-1 expression induced by IFN-α from human monocytes was examined.
# (§3) For monocyte differentiation assays, human monocytes were isolated from the blood of healthy donors according to manufactory's instructions (Miltenyi Biotec Inc; Auburn Calif.). 5×10^5 freshly prepared monocytes were pre-incubated with compounds or vehicle control for 30 min. […] Cell surface protein were stained with FITC-labeled anti-CD80, PE-labeled anti-CD123, PEcy7 labeled anti-CD38, APC cy7 labeled MHC class II (all BD, San Jose, Calif.) and analyzed on a FACS Calibur flow cytometer (BD). Cytokine and chemokine levels in supernatants from monocyte differentiation assays were measured using searchlight human cytokine array (Pierce Inc, Woburn, Mass.). […]
# [3] = system: CD80, CD123 and CD38 cell surface expression on monocytes; test: IFN-α induced primary human monocyte activation/differentiation, cell surface markers by FACS; format: cell-based; conditions: 500 IU/ml IFN-α, 48 h, FACS (FIG. 5)
# Experimental: Freshly isolated monocytes from healthy donor were pre-incubated with compounds or vehicle control for 0.5 hour before stimulation with 500 IU/ml IFN-α. Cell surface expression of CD80, CD123 and CD38 was evaluated by FACS 48 h post-stimulation. Each bar represents the average+/−SEM of three independent experiments.
# Since deregulated differentiation of DCs induced by IFN-α may be a critical contributing factor in SLE^13, the impact of Apicidin 1a, IKK2 inhibitor IV, and JAK inhibitors in DC differentiation was examined. Human monocytes were stimulated with IFN-α and the expression of CD38 CD80 and CD123 differentiation markers was monitored^33.
# For monocyte differentiation assays, human monocytes were isolated from the blood of healthy donors according to manufactory's instructions (Miltenyi Biotec Inc; Auburn Calif.). 5×10^5 freshly prepared monocytes were pre-incubated with compounds or vehicle control for 30 min. Cells were then incubated in RPMI 1640 medium (Invitrogen, Carlsbad, Calif.) including 10% fetal calf serum (Invitrogen) supplemented with 500 IU/ml IFN-α 2a for 48 hr. Cell surface protein were stained with FITC-labeled anti-CD80, PE-labeled anti-CD123, PEcy7 labeled anti-CD38, APC cy7 labeled MHC class II (all BD, San Jose, Calif.) and analyzed on a FACS Calibur flow cytometer (BD). Cytokine and chemokine levels in supernatants from monocyte differentiation assays were measured using searchlight human cytokine array (Pierce Inc, Woburn, Mass.). (see FIG. 5)
# IFN-α signaling pathway = test: High-Throughput Integrated Transcriptional Screening (HITS), qPCR of IFN-α signature gene set in THP-1 cells; format: cell-based, human; conditions: compound 10 μM, 100 IU/ml IFN-α 4 h, a gene inhibited by more than 50% gets its maximum score, scores added, hit if greater than 50% of maximum
# Experimental: The unique gene expression signature of the IFN-α signaling pathway was established in THP-1 cells by comparing the gene profiles of the fully activated IFNα pathway to the basal gene expression. THP-1 cells were stimulated either with 100 IU/ml IFN-α, 100 IU/ml IFN-γ, or 10 ng/ml TNF-α to generate the activated pathway gene signatures.
# In one embodiment, the compounds of Table 1 were used to identify different mechanisms of action as identified from primary screening. If a gene is inhibited by more than 50% then it receives its maximum score (all or none type of scoring).
# THP-1 cells seeded at 8×10^5 cells/ml were treated with either compound (10 μM final concentration) or vehicle control (0.1% DMSO) for 30 minutes prior to a four hour stimulation with 100 IU/ml IFN-α or PBS. Plates were incubated at 37° C. in a humidified incubator. Cell lysis and RNA isolation were carried out according to the manufacturer's instructions (TurboCapture mRNA Kit, Qiagen Inc.). PCR primer pairs were designed for each of the genes identified through the global gene expression analysis using Primer 3 based method (see below for primer sequences). Each primer was evaluated for the efficient production of a single band of appropriate size in the presence of template RNA and the lack of distinct amplification products in a non-template control. Real time PCR reactions were carried out in SYBR green master mix (Quanta biosciences) on ABI9700 thermocyclers.
# We used the house keeping gene, GAPDH, as the normalization control for the IFN-α gene signature set to correct the overall variability in the qPCR based HITS process. The corrected profiles were then normalized to the basal gene expression levels determined by using the vehicle only treatments. We subtracted the vehicle only control gene value from the test compound gene profiles, gene per gene (see FIG. 1).
# HSV-1 = test: In vitro anti-viral assay, HSV-1/luciferase replication in Hep-2 cells with IFN-α; format: cell-based, Herpes Simplex Virus-1
# Experimental: Hep-2 cells were seeded at 2×10^4 cells/well in 96 well plates. Cells were infected with HVS1 at an Multiplicity Of Infection (MOI) of 5 for 1 h at 37° C. 24 hours post-seeding. Virus was aspirated, cells were washed, and 200 μl of medium with or without IFN-α or compound were added as indicated. After 48 h, cells were washed, lysed and luciferase activity were measured according to the manufacturer's instructions. […] Each bar represents the mean+/−SEM of triplicates from one experiment.
# Herpes Simplex Virus-1 (HSV-1) represents one of the major recurrent virus infections observed in SLE patients^37. Type-I and Type-II IFN signals are known to block HSV-1 dissemination in mice^38, and as a consequence, a therapeutic approach that neutralizes their combined activity may constitute an important safety concern. Therefore, the impact of Apicidin 1a, IKK2 inhibitor IV, and JAK inhibitors on HSV-1 replication regulated by IFN-α in Hep-2 cells was examined in vitro. HSV-1/luciferase was used to infect Hep-2 cells, and viral replication was monitored by luciferase expression.
# Hep-2 cells were propagated in MEM (Invitrogen) with 10% fetal bovine serum. HSV-1 recombination virus with both firefly and Renilla luciferase genes in a divergent orientation from a single multiple cloning site were a gift from Dr. Leib's lab. Hep-2 cells were seeded at 2×10^4 cells/well in 96 well plate, 24 h post seeding, cells were infected with virus at an MOI of 5, after absorption for 1 h at 37° C., free viral particles were removed by aspiration, cells were washed, and 200 μl medium containing IFN-α with or without test compounds. After 48 h incubation, cells were washed and lysed in 20 μl of Passive Lysis Buffer (Promega Inc; Madison, Wis.) frozen, thawed, and assayed for firefly and Renilla luciferase activity using the Dual Luciferase Assay kit (Promega).
# IP-10 [4] = test: IFN-α induced IP-10 secretion from human monocytes; format: cell-based; conditions: 500 IU/ml IFN-α, 48 h (FIG. 6A)
# Experimental: as §1, §2, §3
# IP-10 [5] = test: IFN-α induced chemokine release in vivo (adenovirus IFN-α5, serum IP-10 ELISA); parameters: species or system Female NZBW/F1 mice
# Experimental: as §1
# Next, the effect of IKK-2 inhibitor IV in IP-10 and MCP-1 expression was examined in vivo. To induce IP-10 and MCP-1 expression, mice were infected with adenovirus encoding IFN-α5. As a result, IP-10 but not MCP-1 levels were detected in serum (data not shown). […]
# Female NZBW/F1 mice (Jackson Laboratories, Bar Harbor, Me.) were housed in pathogen-free conditions with access to food and water. […] Serum levels of IP10 were assessed by ELISA (R&D Systems, Minneapolis, Minn.). […]
Compound,Cytotoxicity [1],Percentage inhibition of the six most robustly induced IFN-α signature genes induced by SLE serum [2] [%],Upregulation of the six most robustly induced IFN-α signature gene set by 50% lupus serum (in words) [2],MCP-1 expression induced by IFN-α (MCP-1),CD38 expression [3],CD80 expression [3],CD123 expression [3],HTS Score (IFN-α signaling pathway),"Effect on anti-viral effects of IFN-α at low dose (HSV-1; HSV-1, 0.1 μm (FIG. 7C))","IFN-α dependent anti-viral activity at higher dose (HSV-1; HSV-1, higher dose where MCP-1 production is inhibited (FIG. 7C))",Expression of IP-10 induced by IFN-α (IP-10 [4]),"IFN-α induced IP-10 protein level in vivo (in words) (IP-10 [5]; Female NZBW/F1 mice, 45 mg/kg BID, 6 h post-stimulation, ELISA (FIG. 6C))","Inhibition of levels of serum IP-10 (IP-10 [5]; mice infected with adenovirus encoding IFN-α5, 6 h post-stimulation, IKK2 inhibitor 45 mg/kg BID, antibody i.p. 30 mg/kg) [%]","Effect on IFN-α dependent anti-viral activity (HSV-1 replication) (HSV-1; MOI 5, 48 h, even at higher doses (FIG. 7A, 7B))"
"CCC(=O)CCCCC[C@@H]1NC(=O)[C@H]2CCCCN2C(=O)C([C@@H](C)CC)NC(=O)[C@H](Cc2cn(OC)c3ccccc23)NC1=O (stereo partly drawn) [Compound 2, Apicidin]",did not exhibit cytotoxicity,80,blocked the upregulation,totally neutralizes MCP-1 expression,limited to the highest dose of 1 μM,blocks CD80 expression,limited to the highest dose of 1 μM,0.89,inhibited anti-viral effects of IFN-α,abolished or viral growth was actually promoted,no neutralization,–,–,–
"O=C(CCCCCN1C(=O)c2cccc3cccc(c23)C1=O)NO [Compound 3, scriptaid]",–,–,–,–,–,–,–,0.88,–,–,–,–,–,–
"CC(/C=C/C(=O)NO)=C\[C@@H](C)C(=O)c1ccc(N(C)C)cc1 [Compound 4, Trichostatin A]",–,–,–,–,–,–,–,1,–,–,–,–,–,–
"NC(=O)Nc1sc(-c2ccc(F)cc2)cc1C(N)=O [Compound 5, IKK-2 Inhibitor IV]",did not exhibit cytotoxicity,77,blocked the upregulation,restricted to the highest dose,dose-dependent inhibition,dose-dependent inhibition,dose-dependent inhibition,0.95,–,–,block the expression of IP-10,blocked,98,retained the majority of IFN-α dependent anti-viral activity
"CC(C)(C)c1nc2c3ccc(F)cc3c3c(=O)[nH]ccc3c2[nH]1 [Compound 7, JAK Inhibitor I]",did not exhibit cytotoxicity,60,blocked the upregulation,restricted to the highest dose,dose-dependent inhibition,dose-dependent inhibition,dose-dependent inhibition,0.9,–,–,block the expression of IP-10,–,–,–
"C=CC(=O)C1=CC2C=CC=CC2C=C1 (stereo not drawn) [Compound 8, JAK3 Inhibitor V]",–,–,–,–,–,–,–,0.79,–,–,–,–,–,–
Oxamflatin [Compound 1],–,–,–,–,–,–,–,1,–,–,–,–,–,–
